Legend:
Test in all cases: relative viability (nuclei count vs DMSO), 5 days (fraction); higher = more cells survive
Alisertib + Phenformin = compound: COc1cc(Nc2ncc3c(n2)-c2ccc(Cl)cc2C(c2c(F)cccc2OC)=NC3)ccc1C(=O)O [Alisertib] + N=C(N)NC(=N)NCCc1ccccc1 [Phenformin] (partner 250 µM)
Method in brief: (§1)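 Lung cancer cell lines, seeded in 1536-well plates, were treated the following day by pin tool with a single drug or with five library-drug doses (not always all listed) in √10 steps on top of a fixed anchor-drug dose. Cells were fixed and nuclei stained in one step after 5 days, and nuclei were counted. Relative viability is the nuclei count for treated wells divided by that for vehicle wells, reported as medians of duplicate plates.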

Alisertib + OSI-027 = compound: COc1cc(Nc2ncc3c(n2)-c2ccc(Cl)cc2C(c2c(F)cccc2OC)=NC3)ccc1C(=O)O [Alisertib] + COc1cccc2cc(-c3nc([C@H]4CC[C@H](C(=O)O)CC4)n4ncnc(N)c34)[nH]c12 [OSI-027] (partner 0.5 µM)
Method in brief: as §1

Alisertib + Trametinib = compound: COc1cc(Nc2ncc3c(n2)-c2ccc(Cl)cc2C(c2c(F)cccc2OC)=NC3)ccc1C(=O)O [Alisertib] + CC(=O)Nc1cccc(-n2c(=O)n(C3CC3)c(=O)c3c(Nc4ccc(I)cc4F)n(C)c(=O)c(C)c32)c1 [Trametinib] (partner 0.02 µM)
Method in brief: as §1

Alisertib + Crizotinib = compound: COc1cc(Nc2ncc3c(n2)-c2ccc(Cl)cc2C(c2c(F)cccc2OC)=NC3)ccc1C(=O)O [Alisertib] + C[C@@H](Oc1cc(-c2cnn(C3CCNCC3)c2)cnc1N)c1c(Cl)ccc(F)c1Cl [Crizotinib] (partner 1 µM)
Method in brief: as §1

Cell Line: NCI-H2023
- relative viability (Alisertib + Phenformin; first compound 0.005 µM): 0.428
- relative viability (Alisertib + Phenformin; first compound 0.01581 µM): 0.388
- relative viability (Alisertib + Phenformin; first compound 0.05 µM): 0.28
- relative viability (Alisertib + Phenformin; first compound 0.1581 µM): 0.157
- relative viability (Alisertib + Phenformin; first compound 0.5 µM): 0.0966
- relative viability (Alisertib + OSI-027; first compound 0.005 µM): 0.333
- relative viability (Alisertib + OSI-027; first compound 0.01581 µM): 0.324
- relative viability (Alisertib + OSI-027; first compound 0.05 µM): 0.317
- relative viability (Alisertib + OSI-027; first compound 0.1581 µM): 0.162
- relative viability (Alisertib + OSI-027; first compound 0.5 µM): 0.0743
- relative viability (Alisertib + Trametinib; first compound 0.005 µM): 0.623
- relative viability (Alisertib + Trametinib; first compound 0.01581 µM): 0.435
- relative viability (Alisertib + Trametinib; first compound 0.05 µM): 0.289
- relative viability (Alisertib + Trametinib; first compound 0.1581 µM): 0.123
- relative viability (Alisertib + Trametinib; first compound 0.5 µM): 0.124
- relative viability (Alisertib + Crizotinib; first compound 0.005 µM): 0.721
- relative viability (Alisertib + Crizotinib; first compound 0.01581 µM): 0.64
- relative viability (Alisertib + Crizotinib; first compound 0.05 µM): 0.345
- relative viability (Alisertib + Crizotinib; first compound 0.1581 µM): 0.142
- relative viability (Alisertib + Crizotinib; first compound 0.5 µM): 0.112

Cell Line: NCI-H2085
- relative viability (Alisertib + Phenformin; first compound 0.005 µM): 0.597
- relative viability (Alisertib + Phenformin; first compound 0.01581 µM): 0.651
- relative viability (Alisertib + Phenformin; first compound 0.05 µM): 0.42
- relative viability (Alisertib + Phenformin; first compound 0.1581 µM): 0.259
- relative viability (Alisertib + Phenformin; first compound 0.5 µM): 0.327
- relative viability (Alisertib + OSI-027; first compound 0.005 µM): 0.591
- relative viability (Alisertib + OSI-027; first compound 0.01581 µM): 0.746
- relative viability (Alisertib + OSI-027; first compound 0.05 µM): 0.469
- relative viability (Alisertib + OSI-027; first compound 0.1581 µM): 0.222
- relative viability (Alisertib + OSI-027; first compound 0.5 µM): 0.235
- relative viability (Alisertib + Trametinib; first compound 0.005 µM): 0.505
- relative viability (Alisertib + Trametinib; first compound 0.01581 µM): 0.496
- relative viability (Alisertib + Trametinib; first compound 0.05 µM): 0.264
- relative viability (Alisertib + Trametinib; first compound 0.1581 µM): 0.183
- relative viability (Alisertib + Trametinib; first compound 0.5 µM): 0.246
- relative viability (Alisertib + Crizotinib; first compound 0.005 µM): 0.757
- relative viability (Alisertib + Crizotinib; first compound 0.01581 µM): 0.693
- relative viability (Alisertib + Crizotinib; first compound 0.05 µM): 0.33
- relative viability (Alisertib + Crizotinib; first compound 0.1581 µM): 0.391
- relative viability (Alisertib + Crizotinib; first compound 0.5 µM): 0.388

Cell Line: NCI-H2087
- relative viability (Alisertib + Phenformin; first compound 0.005 µM): 0.423
- relative viability (Alisertib + Phenformin; first compound 0.01581 µM): 0.372
- relative viability (Alisertib + Phenformin; first compound 0.05 µM): 0.13
- relative viability (Alisertib + Phenformin; first compound 0.1581 µM): 0.12
- relative viability (Alisertib + Phenformin; first compound 0.5 µM): 0.105
- relative viability (Alisertib + OSI-027; first compound 0.005 µM): 0.542
- relative viability (Alisertib + OSI-027; first compound 0.01581 µM): 0.521
- relative viability (Alisertib + OSI-027; first compound 0.05 µM): 0.204
- relative viability (Alisertib + OSI-027; first compound 0.1581 µM): 0.111
- relative viability (Alisertib + OSI-027; first compound 0.5 µM): 0.098
- relative viability (Alisertib + Trametinib; first compound 0.005 µM): 0.243
- relative viability (Alisertib + Trametinib; first compound 0.01581 µM): 0.221
- relative viability (Alisertib + Trametinib; first compound 0.05 µM): 0.149
- relative viability (Alisertib + Trametinib; first compound 0.1581 µM): 0.134
- relative viability (Alisertib + Trametinib; first compound 0.5 µM): 0.0971
- relative viability (Alisertib + Crizotinib; first compound 0.005 µM): 0.893
- relative viability (Alisertib + Crizotinib; first compound 0.01581 µM): 0.609
- relative viability (Alisertib + Crizotinib; first compound 0.05 µM): 0.176
- relative viability (Alisertib + Crizotinib; first compound 0.1581 µM): 0.225
- relative viability (Alisertib + Crizotinib; first compound 0.5 µM): 0.209

Cell Line: NCI-H2126
- relative viability (Alisertib + Phenformin; first compound 0.005 µM): 0.482
- relative viability (Alisertib + Phenformin; first compound 0.01581 µM): 0.446
- relative viability (Alisertib + Phenformin; first compound 0.05 µM): 0.413
- relative viability (Alisertib + Phenformin; first compound 0.1581 µM): 0.257
- relative viability (Alisertib + Phenformin; first compound 0.5 µM): 0.266
- relative viability (Alisertib + OSI-027; first compound 0.005 µM): 0.721
- relative viability (Alisertib + OSI-027; first compound 0.01581 µM): 0.696
- relative viability (Alisertib + OSI-027; first compound 0.05 µM): 0.588
- relative viability (Alisertib + OSI-027; first compound 0.1581 µM): 0.318
- relative viability (Alisertib + OSI-027; first compound 0.5 µM): 0.36
- relative viability (Alisertib + Trametinib; first compound 0.005 µM): 0.563
- relative viability (Alisertib + Trametinib; first compound 0.01581 µM): 0.57
- relative viability (Alisertib + Trametinib; first compound 0.05 µM): 0.348
- relative viability (Alisertib + Trametinib; first compound 0.1581 µM): 0.281
- relative viability (Alisertib + Trametinib; first compound 0.5 µM): 0.238
- relative viability (Alisertib + Crizotinib; first compound 0.005 µM): 0.96
- relative viability (Alisertib + Crizotinib; first compound 0.01581 µM): 0.945
- relative viability (Alisertib + Crizotinib; first compound 0.05 µM): 0.486
- relative viability (Alisertib + Crizotinib; first compound 0.1581 µM): 0.365
- relative viability (Alisertib + Crizotinib; first compound 0.5 µM): 0.311

Cell Line: NCI-H2170
- relative viability (Alisertib + Phenformin; first compound 0.005 µM): 0.388
- relative viability (Alisertib + Phenformin; first compound 0.01581 µM): 0.374
- relative viability (Alisertib + Phenformin; first compound 0.05 µM): 0.395
- relative viability (Alisertib + Phenformin; first compound 0.1581 µM): 0.276
- relative viability (Alisertib + Phenformin; first compound 0.5 µM): 0.207
- relative viability (Alisertib + OSI-027; first compound 0.005 µM): 0.721
- relative viability (Alisertib + OSI-027; first compound 0.01581 µM): 0.629
- relative viability (Alisertib + OSI-027; first compound 0.05 µM): 0.644
- relative viability (Alisertib + OSI-027; first compound 0.1581 µM): 0.323
- relative viability (Alisertib + OSI-027; first compound 0.5 µM): 0.201
- relative viability (Alisertib + Trametinib; first compound 0.005 µM): 0.871
- relative viability (Alisertib + Trametinib; first compound 0.01581 µM): 0.842
- relative viability (Alisertib + Trametinib; first compound 0.05 µM): 0.401
- relative viability (Alisertib + Trametinib; first compound 0.1581 µM): 0.407
- relative viability (Alisertib + Trametinib; first compound 0.5 µM): 0.17
- relative viability (Alisertib + Crizotinib; first compound 0.005 µM): 1.17
- relative viability (Alisertib + Crizotinib; first compound 0.01581 µM): 1.03
- relative viability (Alisertib + Crizotinib; first compound 0.05 µM): 0.438
- relative viability (Alisertib + Crizotinib; first compound 0.1581 µM): 0.325
- relative viability (Alisertib + Crizotinib; first compound 0.5 µM): 0.225

Cell Line: NCI-H2228
- relative viability (Alisertib + Phenformin; first compound 0.005 µM): 0.277
- relative viability (Alisertib + Phenformin; first compound 0.01581 µM): 0.287
- relative viability (Alisertib + Phenformin; first compound 0.05 µM): 0.17
- relative viability (Alisertib + Phenformin; first compound 0.1581 µM): 0.0908
- relative viability (Alisertib + Phenformin; first compound 0.5 µM): 0.0966
- relative viability (Alisertib + OSI-027; first compound 0.005 µM): 0.589
- relative viability (Alisertib + OSI-027; first compound 0.01581 µM): 0.466
- relative viability (Alisertib + OSI-027; first compound 0.05 µM): 0.27
- relative viability (Alisertib + OSI-027; first compound 0.1581 µM): 0.0993
- relative viability (Alisertib + OSI-027; first compound 0.5 µM): 0.115
- relative viability (Alisertib + Trametinib; first compound 0.005 µM): 0.565
- relative viability (Alisertib + Trametinib; first compound 0.01581 µM): 0.24
- relative viability (Alisertib + Trametinib; first compound 0.05 µM): 0.237
- relative viability (Alisertib + Trametinib; first compound 0.1581 µM): 0.121
- relative viability (Alisertib + Trametinib; first compound 0.5 µM): 0.113
- relative viability (Alisertib + Crizotinib; first compound 0.005 µM): 0.686
- relative viability (Alisertib + Crizotinib; first compound 0.01581 µM): 0.406
- relative viability (Alisertib + Crizotinib; first compound 0.05 µM): 0.301
- relative viability (Alisertib + Crizotinib; first compound 0.1581 µM): 0.168
- relative viability (Alisertib + Crizotinib; first compound 0.5 µM): 0.188

Cell Line: NCI-H2347
- relative viability (Alisertib + Phenformin; first compound 0.005 µM): 0.346
- relative viability (Alisertib + Phenformin; first compound 0.01581 µM): 0.373
- relative viability (Alisertib + Phenformin; first compound 0.05 µM): 0.299
- relative viability (Alisertib + Phenformin; first compound 0.1581 µM): 0.411
- relative viability (Alisertib + Phenformin; first compound 0.5 µM): 0.242
- relative viability (Alisertib + OSI-027; first compound 0.005 µM): 0.373
- relative viability (Alisertib + OSI-027; first compound 0.01581 µM): 0.346
- relative viability (Alisertib + OSI-027; first compound 0.05 µM): 0.373
- relative viability (Alisertib + OSI-027; first compound 0.1581 µM): 0.377
- relative viability (Alisertib + OSI-027; first compound 0.5 µM): 0.282
- relative viability (Alisertib + Trametinib; first compound 0.005 µM): 0.281
- relative viability (Alisertib + Trametinib; first compound 0.01581 µM): 0.273
- relative viability (Alisertib + Trametinib; first compound 0.05 µM): 0.286
- relative viability (Alisertib + Trametinib; first compound 0.1581 µM): 0.271
- relative viability (Alisertib + Trametinib; first compound 0.5 µM): 0.237
- relative viability (Alisertib + Crizotinib; first compound 0.005 µM): 0.783
- relative viability (Alisertib + Crizotinib; first compound 0.01581 µM): 0.526
- relative viability (Alisertib + Crizotinib; first compound 0.05 µM): 0.61
- relative viability (Alisertib + Crizotinib; first compound 0.1581 µM): 0.454
- relative viability (Alisertib + Crizotinib; first compound 0.5 µM): 0.468

Cell Line: NCI-H2405
- relative viability (Alisertib + Phenformin; first compound 0.005 µM): 0.366
- relative viability (Alisertib + Phenformin; first compound 0.01581 µM): 0.46
- relative viability (Alisertib + Phenformin; first compound 0.05 µM): 0.371
- relative viability (Alisertib + Phenformin; first compound 0.1581 µM): 0.28
- relative viability (Alisertib + Phenformin; first compound 0.5 µM): 0.247
- relative viability (Alisertib + OSI-027; first compound 0.005 µM): 0.63
- relative viability (Alisertib + OSI-027; first compound 0.01581 µM): 0.666
- relative viability (Alisertib + OSI-027; first compound 0.05 µM): 0.592
- relative viability (Alisertib + OSI-027; first compound 0.1581 µM): 0.321
- relative viability (Alisertib + OSI-027; first compound 0.5 µM): 0.231
- relative viability (Alisertib + Trametinib; first compound 0.005 µM): 0.614
- relative viability (Alisertib + Trametinib; first compound 0.01581 µM): 0.559
- relative viability (Alisertib + Trametinib; first compound 0.05 µM): 0.575
- relative viability (Alisertib + Trametinib; first compound 0.1581 µM): 0.418
- relative viability (Alisertib + Trametinib; first compound 0.5 µM): 0.217
- relative viability (Alisertib + Crizotinib; first compound 0.005 µM): 0.781
- relative viability (Alisertib + Crizotinib; first compound 0.01581 µM): 0.794
- relative viability (Alisertib + Crizotinib; first compound 0.05 µM): 0.491
- relative viability (Alisertib + Crizotinib; first compound 0.1581 µM): 0.268
- relative viability (Alisertib + Crizotinib; first compound 0.5 µM): 0.253

Reference: the supplement of paper PMC10307832
